From patent US9651566B2, “Method for determining the propensity for calcification” (Rheinisch-Westfälische Technische Hochschule Aachen, priority 2011, dated 2017)

Experiments:
[1] = tested on: transition of primary CPPs into secondary CPPs; assay: Nephelometer assay in the presence of serum; type: biochemical, human; conditions: for transition rate of primary CPPs into secondary CPPs (T50): in the presence of the substance, cf. FIG. 2A
Experimental: Stock Solutions: 1. NaCl-solution: NaCl 140 mM, 2. Calcium solution: CaCl2 40 mM+Hepes 100 mM+NaCI 140 mM, pH adjusted with NaOH 10 mM to 7.40 at 37° C., 3. […] Na2HP04 19.44 mM+NaH2PO4 4.56 mM+Hepes 100 mM+NaCI 140 mM, pH adjusted with NaOH 10 mM to 7.40 at 37° C. […] These pipetting steps were performed in the following order: 1. NaCl-solution: 20 μl/well, 2. serum 80 μl/well, 3. shaking for 1 minute, 4. phosphate solution 50 μl/well, 5. shaking for 1 minute, 6. calcium solution 50 μl/well, shaking for 1 minute. Air bubbles in the wells were disintegrated with a pocket lighter and the 96-well covered with a […] adhesive sealing film for microplates. […] Assay conditions and Nephelostar® settings: measurement in a thermo constant room at 34.5° C. with the internal radiation of the device turned off. This led to an infernal measurement temperature of 36.5° C. to 37° C. The Nephelostar® was operated and controlled via the Nephelostar provider's Galaxy Software on a Windows Computer platform. The assay was performed with 200 cycles of 1.5 seconds measurement time per well and a position delay of 0.1 seconds in horizontal plate reading mode, adding up to a cycle time of 180 seconds/cycle for our Standard assay. This adds up to a total assay run time of 10 hours per assay. […] After completion of the run, data were transferred to Excel® and transposed from lines into columns. Data columns were copied into the GraphPad Prism® program to generate an XY-graph. Data were then processed by calculating nonlinear regression in the “log(agonist) vs. response-variable slope (four Parameters)” mode using the “robust fit” fitting method. The resulting values obtained for T50 and RNUT50 were further processed as required. We chose physiological conditions for temperature (37° C.) and pH (7.40 at 37° C.), and designed the assay for a final volume of 200 μl per well. These 200 μl consisted of 20 μl NaCl 140 mM, 80 μl serum, 50 μl phosphate 24 mM and 50 μl calcium 40 mM solution which were mixed in this order. […]

[2] = tested on: transition of primary CPPs into secondary CPPs; assay: Nephelometry in the absence of serum; type: biochemical; conditions: FIG. 6A

## [Mg+2] [magnesium]
[1]
  transition rate of primary CPPs into secondary CPPs (T50): delayed

## phosphate
[1]
  transition rate of primary CPPs into secondary CPPs (T50): accelerated

## O=S([O-])([O-])=S.[Na+].[Na+] [sodium thiosulfate]
[1]; spiked to serum in amounts of up to 40 mM
  impact on the assay: did not have any impact

B1: fetuin A: the strongest intrinsic serum calcification inhibitor (protein, UniProt P02765 19-300; P02765 341-367, looked up)
Alpha-2-HS-glycoprotein chain … 1: APHGPGLIYRQPNCDDPETEEAALVAIDYINQNLPWGYKHTLNQIDEVKVWPQQPSGELFEIEIDTLETTCHVLDPTPVARCSVRQLKEHAVEGDCDFQLLKLDGKFSVVYAKCDSSPDSAEDVRKVCQDCPLLAPLNDTRVVHAAKAALAAFNAQNNGSNFQLEEISRAQLVPLPPSTYVEFTVSGTDCVAKEATEAAKCNLLAEKQYGFCKATLSEKLGGAEVAVTCMVFQTQPVSSQPQPEGANEAVPTPVVDPDAPPSPPLGAPGLPPAGSPPDSHVL
Alpha-2-HS-glycoprotein chain … 2: TVVQPSVGAAAGPVVPPCPGRIRHFKV
[2]
  influence on the assay (spiked serum components): significantly influences the assay
